Blank lines part the entries; values can stand above or below the compound they belong to.
Legend:
Assay type in all cases: biochemical
KDM4A [1] = target: T1, KDM4A (Homo sapiens, UniProt O75164); assay: KDM4A enzymatic screening assay and fluorescence assay at […]
T1 sequence (O75164 2-1064): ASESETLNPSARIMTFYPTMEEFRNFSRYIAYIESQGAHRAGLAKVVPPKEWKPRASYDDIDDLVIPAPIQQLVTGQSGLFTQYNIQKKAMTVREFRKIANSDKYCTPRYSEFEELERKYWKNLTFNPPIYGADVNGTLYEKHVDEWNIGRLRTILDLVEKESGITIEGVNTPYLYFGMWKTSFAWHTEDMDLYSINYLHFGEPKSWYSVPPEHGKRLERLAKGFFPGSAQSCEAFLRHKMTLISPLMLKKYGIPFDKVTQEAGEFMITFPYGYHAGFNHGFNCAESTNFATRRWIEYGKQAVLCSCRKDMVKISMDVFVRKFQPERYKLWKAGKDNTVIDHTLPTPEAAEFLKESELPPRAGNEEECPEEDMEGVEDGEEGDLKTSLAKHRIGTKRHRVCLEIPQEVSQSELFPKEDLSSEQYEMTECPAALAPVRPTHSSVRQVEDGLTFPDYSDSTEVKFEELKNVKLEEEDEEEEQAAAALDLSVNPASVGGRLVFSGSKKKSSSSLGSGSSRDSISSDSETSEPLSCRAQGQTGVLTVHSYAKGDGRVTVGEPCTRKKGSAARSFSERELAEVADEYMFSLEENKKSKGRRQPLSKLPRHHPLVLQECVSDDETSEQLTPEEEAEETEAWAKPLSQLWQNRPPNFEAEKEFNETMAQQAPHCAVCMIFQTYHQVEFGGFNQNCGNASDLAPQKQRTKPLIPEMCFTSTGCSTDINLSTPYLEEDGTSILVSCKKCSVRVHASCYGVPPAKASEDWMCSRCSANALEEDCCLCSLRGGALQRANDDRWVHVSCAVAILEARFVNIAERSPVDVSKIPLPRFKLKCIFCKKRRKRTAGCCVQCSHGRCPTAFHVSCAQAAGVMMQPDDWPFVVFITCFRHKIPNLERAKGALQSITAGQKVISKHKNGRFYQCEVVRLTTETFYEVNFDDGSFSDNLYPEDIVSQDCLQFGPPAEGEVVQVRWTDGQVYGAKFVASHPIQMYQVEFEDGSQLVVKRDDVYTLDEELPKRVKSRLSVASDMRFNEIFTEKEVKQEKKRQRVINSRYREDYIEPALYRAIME

KDM4A [2] = target: T1, KDM4A; assay: fluorescence demethylase enzymatic assay, single dose […]
KDM4D = target: T2, KDM4D (Homo sapiens, UniProt Q6B0I6); assay: fluorescence demethylase enzymatic assay, dose curve
T2 construct: KDM4D-GST recombinant enzyme
T2 sequence (Q6B0I6 1-523): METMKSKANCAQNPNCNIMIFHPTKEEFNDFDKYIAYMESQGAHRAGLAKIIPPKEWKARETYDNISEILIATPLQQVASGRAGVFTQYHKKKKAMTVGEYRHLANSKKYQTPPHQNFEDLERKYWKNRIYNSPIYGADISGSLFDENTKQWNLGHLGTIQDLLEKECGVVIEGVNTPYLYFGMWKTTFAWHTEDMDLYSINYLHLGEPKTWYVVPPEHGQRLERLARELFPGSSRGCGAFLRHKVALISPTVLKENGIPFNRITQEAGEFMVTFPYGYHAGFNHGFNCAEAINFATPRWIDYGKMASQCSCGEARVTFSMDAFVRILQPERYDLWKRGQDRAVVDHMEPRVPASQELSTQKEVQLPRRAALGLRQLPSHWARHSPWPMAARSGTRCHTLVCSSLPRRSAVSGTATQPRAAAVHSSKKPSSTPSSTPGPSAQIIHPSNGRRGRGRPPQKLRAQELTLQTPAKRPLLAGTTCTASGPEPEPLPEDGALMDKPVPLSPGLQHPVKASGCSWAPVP

KDM4B = target: T3, KDM4B (Homo sapiens, UniProt O94953); assay: as above
T3 construct: KDM4B-GST recombinant enzyme
T3 sequence (O94953 1-1096): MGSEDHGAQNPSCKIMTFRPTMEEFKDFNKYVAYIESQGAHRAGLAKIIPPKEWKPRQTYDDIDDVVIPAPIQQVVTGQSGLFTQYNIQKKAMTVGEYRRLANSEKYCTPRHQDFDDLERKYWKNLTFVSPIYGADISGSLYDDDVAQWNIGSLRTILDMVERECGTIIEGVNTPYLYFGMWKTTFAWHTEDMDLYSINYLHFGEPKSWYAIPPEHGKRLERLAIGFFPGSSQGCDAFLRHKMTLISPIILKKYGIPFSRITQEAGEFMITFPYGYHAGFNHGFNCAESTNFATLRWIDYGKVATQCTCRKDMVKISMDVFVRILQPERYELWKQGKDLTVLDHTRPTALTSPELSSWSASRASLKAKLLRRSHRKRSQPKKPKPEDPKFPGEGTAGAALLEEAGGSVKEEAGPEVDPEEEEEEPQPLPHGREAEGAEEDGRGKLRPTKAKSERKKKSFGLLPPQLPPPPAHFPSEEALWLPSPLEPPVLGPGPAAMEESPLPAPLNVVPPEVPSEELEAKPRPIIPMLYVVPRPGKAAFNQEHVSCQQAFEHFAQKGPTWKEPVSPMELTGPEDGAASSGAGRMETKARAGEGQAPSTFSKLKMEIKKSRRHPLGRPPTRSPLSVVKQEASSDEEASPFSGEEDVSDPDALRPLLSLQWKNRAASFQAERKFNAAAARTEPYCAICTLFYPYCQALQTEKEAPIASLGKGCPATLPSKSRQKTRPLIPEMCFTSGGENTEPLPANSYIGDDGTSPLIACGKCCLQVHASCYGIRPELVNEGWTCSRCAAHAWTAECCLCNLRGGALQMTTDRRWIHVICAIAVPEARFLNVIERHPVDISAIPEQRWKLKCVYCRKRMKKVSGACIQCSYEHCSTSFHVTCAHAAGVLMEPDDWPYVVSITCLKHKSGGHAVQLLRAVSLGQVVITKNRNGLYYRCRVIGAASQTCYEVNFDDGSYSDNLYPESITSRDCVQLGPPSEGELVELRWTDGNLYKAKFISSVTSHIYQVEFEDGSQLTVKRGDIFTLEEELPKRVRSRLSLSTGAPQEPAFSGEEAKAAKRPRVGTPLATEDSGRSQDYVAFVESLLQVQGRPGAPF

KDM4A [3] = target: T1, KDM4A; assay: AlphaLISA JMJD2A homogeneous demethylase assay, […] concentrations (fluorescence assay gave IC50 […])
KDM4C = target: T4, KDM4C (Homo sapiens, UniProt Q9H3R0); assay: fluorescence demethylase enzymatic assay, dose curve
T4 construct: KDM4C-GST recombinant enzyme
T4 sequence (Q9H3R0 1-1056): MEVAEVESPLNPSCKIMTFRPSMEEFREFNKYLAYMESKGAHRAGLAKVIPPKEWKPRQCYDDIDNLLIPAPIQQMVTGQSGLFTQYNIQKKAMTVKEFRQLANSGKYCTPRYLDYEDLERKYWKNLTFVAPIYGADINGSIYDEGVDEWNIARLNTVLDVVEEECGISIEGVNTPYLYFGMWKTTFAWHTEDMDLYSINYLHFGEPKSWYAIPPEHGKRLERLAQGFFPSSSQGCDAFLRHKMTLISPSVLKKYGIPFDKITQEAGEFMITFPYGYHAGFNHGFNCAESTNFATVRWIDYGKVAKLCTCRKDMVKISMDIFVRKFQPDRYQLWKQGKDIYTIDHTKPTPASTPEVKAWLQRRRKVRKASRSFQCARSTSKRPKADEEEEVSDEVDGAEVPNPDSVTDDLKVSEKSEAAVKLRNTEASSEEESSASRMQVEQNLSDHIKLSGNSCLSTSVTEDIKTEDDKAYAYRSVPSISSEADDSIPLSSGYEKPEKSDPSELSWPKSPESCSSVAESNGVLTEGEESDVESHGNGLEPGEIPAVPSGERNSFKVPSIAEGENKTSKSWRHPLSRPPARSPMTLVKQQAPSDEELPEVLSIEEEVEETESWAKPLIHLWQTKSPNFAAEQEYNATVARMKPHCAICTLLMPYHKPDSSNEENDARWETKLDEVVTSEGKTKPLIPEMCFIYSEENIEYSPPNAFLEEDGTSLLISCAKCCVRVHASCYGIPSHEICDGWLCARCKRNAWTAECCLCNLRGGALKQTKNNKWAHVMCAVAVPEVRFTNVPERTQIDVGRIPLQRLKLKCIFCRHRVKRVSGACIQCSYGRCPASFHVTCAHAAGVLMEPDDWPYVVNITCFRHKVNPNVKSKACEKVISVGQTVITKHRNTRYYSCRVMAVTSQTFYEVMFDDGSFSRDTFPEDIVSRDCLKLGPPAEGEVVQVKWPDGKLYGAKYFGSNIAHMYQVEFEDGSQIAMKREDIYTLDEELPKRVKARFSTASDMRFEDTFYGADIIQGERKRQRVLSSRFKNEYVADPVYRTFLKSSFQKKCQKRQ

KDM4A enzymatic screening assay and fluorescence assay at 50 μM (KDM4A [1]): Purpurogallin 9aa
Compound: O=c1c(O)cccc2cc(O)c(O)c(O)c12 [9aa, 2,3,4,6-tetrahydroxy-5H-benzo[7]annulen-5-one]

inhibition at 50 µM (KDM4A [2]): 50%
Compound: O=c1c(O)cccc2c(Br)cc(O)c(O)c12 [9ac, 1-bromo-3,4,6-trihydroxy-5H-benzo[7]annulen-5-one]

inhibition at 50 µM (KDM4A [2]): 80%
Compound: O=C(O)c1cc(O)c(=O)c2c(O)c(O)cc(Br)c2c1 [9bc, 1-bromo-3,4,6-trihydroxy-5-oxo-5H-benzo[7]annulene-8-carboxylic acid]

IC50 (KDM4D): 28.5 µM
IC50 (KDM4B): 35.9 µM
IC50 (KDM4A [3]): 10.1 µM
IC50 (KDM4C): 38.9 µM
Compound: O=C(O)c1cc(O)c(=O)c2c(O)c(O)cc(-c3ccccc3)c2c1 [9bf, 3,4,6-trihydroxy-5-oxo-1-phenyl-5H-benzo[7]annulene-8-carboxylic acid]

From publication PMC7261929, “A New Family of Jumonji C Domain-Containing KDM Inhibitors Inspired by Natural Product Purpurogallin” (Frontiers in Chemistry, 2020)
